The source of these data is patent publication US12441733B2, “Substituted 2,4-dioxotetrahydropyrimidines as intermediates in the synthesis of bruton's tyrosine kinase inhibitors” (Novartis AG, priority 2018, dated 2025).

Holding throughout (type): cell-based
One experiment has as its system TMD8 cells. Description: Resazurin cell viability (proliferation) assay in TMD8 DLBCL cells. The conditions noted are these: TMD8 cells (BTK dependent), 72 h, 50% growth inhibition vs vehicle, read-out: TMD8 Prol GI50. The procedure:
(§1) Compounds of the invention were tested in the following cellular assays. The terms in Table 2 are defined as follows: DC50 refers to the concentration at which 50% maximal degradation was observed; deg Amax is the extent of degradation and the value refers to the % protein remaining at the concentration at which maximum degradation is seen; ProI GI50 refers to the proliferation data and defines the concentration at which 50% growth inhibition was observed compared to the vehicle treated control at the end of the incubation time. TMD8 cells are BTK dependent and OCI-LY3 cells are BTK independent.
(§2) Cell Viability Assay in DLBCL (Diffuse Large B-Cell Lymphoma) Cells:
(§3) The effect of the BTK compounds on cell proliferation was measured by a Resazurin (Sigma, #R7017) based cell viability assay. TMD8 (BTK compound sensitive) and OCI-LY3 (BTK compound insensitive) cells were incubated for 72 h at 37° C. and 5% CO2 with the corresponding compound, Resazurin is a non-toxic, cell-permeable substrate that is virtually non-fluorescent. Upon entering living cells, Resazurin (Sigma, #R7017) is reduced to highly fluorescent Resorufin. The metabolic activity was assessed by measuring the fluorescence signal (ex. 530 nm; em. 600 nm).
(§4) TMD8 and OCI-Ly3 cells were seeded at day 0 in triplicates at a cell density of 1×10^4 cells per 150 μl/well in a 96-well plate (Costar #3904). Additional plates were prepared, in order to assess the basal metabolic activity of both cell lines at the beginning of the experiment. For these reference plates, Resazurin (Sigma, #R7017) was added to a final concentration of 13 μg/ml 3 h post seeding and was incubated for 2 h at 37° C. and 5% CO2. Following incubation, the fluorescent signal intensity of the 96-well plates was measured on a Mithras LB940 multimode plate reader at 530/600 nm (Berthold Technologies, Germanyl).
(§5) In parallel, 3 h post-seeding, test-plates were treated with compound at various concentrations, or with vehicle (DMSO) alone for 3 days. The compound addition to the plates was performed by using a HP D300 digital dispenser (TECAN, Switzerland). The compounds were tested in triplicate, 8-point serial dilution (1:4), with a start concentration of 10 μM for OCI-LY3 and 1 μM for the TMD8 cells, respectively. To assess the relative proliferation of the cells, Resazurin was added to each well directly to the medium to a final concentration of 13 μg/ml. The plates were incubated for 2 h at 37° C. and 5% CO2 to result in a 72 h endpoint. Following incubation, the fluorescent signal intensity of the 96-well plates were measured on a Mithras LB940 multimode plate reader at 530/600 nm (Berthold Technologies, Germanyl). The formation of Resorufin dye directly correlates with the number of metabolically active cells. For each triplicate treatment the mean and standard deviation were calculated and analyzed via curve fitting software to determine the respective compound concentration resulting in 50% growth inhibition (GI50) values. For each compound GI50 values were typically determined from at least 2 entirely independent experiments.
TMD8 cells were acquired through a license agreement with Tokyo Medical and Dental University, Japan. Cells are cultivated in MEM Alpha (BioConcept, #1-23F01-1, lot. LB04262P) supplemented with 10% FCS (HyClone, GE #SH30066.03, lot AB3217603), 2 mM L-Glutamine (BioConcept, #5-10K50-H, lot. LA03467P), 1% Pen/Strep (BioConcept, #4-01F00-H, lot. LB04235P).
(Alamar Blue is a resazurin reagent that responds to reducing activity.)

Another experiment addresses T1, BTK-GFP (Homo sapiens, UniProt Q06187+Q96SW2).
T1 construct: expressed in transfected cells; host or cells: HEK293A (Invitrogen R70507), lentiviral transduction with pLenti6-BTK-GFP-Ires-RFP, blasticidin selection
Description: BTK-GFP protein abundance flow cytometry assay in HEK293A cells. The conditions noted are these: HEK293A BTK-GFP-iresRFP cells, 24 h; for DC50: GFP signal by flow cytometry, concentration at which 50% maximal degradation was observed; for BTK deg Amax: % protein remaining at the concentration at which maximum degradation is seen. The procedure:
as §1
BTK-GFP and IKZF3-GFP protein abundance flow cytometry assay in HEK293A cells:
Degradation of BTK or IKZF3 was measured in HEK293A cells (Invitrogen R70507) expressing either BTK-GFP and RFP or IKZF3-GFP and RFP from a stably integrated bicistronic BTK-GFP-iresRFP or IKZF3-GFP-iresRFP construct, respectively. Reduction of the GFP signal measured by flow cytometry served as readout for BTK or IKZF3 degradation after degrader treatment.
i) Cloning of the pLenti6-BTK-GFP-1Res-RFP and IKZF3-GFP-Ires-RFP Sensor Vectors
The bicistronic BTK-GFP-iresRFP construct is based on a pLenti6-DEST vector backbone where GFP was introduced into the unique Xho1 site downstream of the destination cassette (DEST) and RFP was cloned behind an internal ribosomal entry site (Ires).
In detail, the sensor construct was engineered by replacing NanoLuciferase (NLuc) by GFP and FireFly luciferase (FF) by RFP from pLenti6-DEST-NLuc-Ires-FF.
The pLenti6-DEST-NLuc-Ires-FF sensor construct was cloned by replacing eGFP from pLenti6-DEST-ires-eGFP with a synthesized stuffer element (encoding Ires-FF with FF flanked by two Nhe1 restriction sites) using blunt end cloning replacing Ires-eGFP between the two PmII. To enable C-terminal tagging with NanoLuciferase (NLuc), NLuc was amplified from pNL1.1 (Promega #N1001) using linker primers with Xho1 sites for ligating into linearized pLenti6-DEST-Ires-FF using Xho1 digest resulting in the construct pLenti6-DEST-NLuc-Ires-FF.
The pLenti6-DEST-NLuc-Ires-FF served as base vector for cloning pLenti6-DEST-GFP-Ires-RFP using Gibson assembly to replace FF with RFP and NLuc with GFP. In a first round FF was replaced by RFP by amplifying RFP from a template using the following Gibson assembly linker primers (Gibson-Nhe1 RFPfw, […]gctagc[…] (SEQ ID NO: 1); Gibson-Nhe1 RFP-Stoprev, […]ctagc[…] (SEQ ID NO: 2)) to clone into pLenti6-DEST-NLuc-Ires-FF digested with Nhe1 and gel-purified to remove the FF fragment. The resulting pLenti6-DEST-NLuc-Ires-RFP vector served as the template to replace NLuc with GFP by amplifying GFP from a template using following Gibson assembly linker primers (Gibson-Xho1 GFPfw, […]c[…] (SEQ ID NO: 3); Gibson-Xho1 GFP-Stoprev, […] (SEQ ID NO: 4)) to clone into pLenti6-DEST-NLuc-Ires-RFP digested with Xho1 and gel-purified to remove the NLuc fragment. All Gibson assembly reactions were performed with Gibson assembly Master Mix (New England Biolabs NEB E261 IL) according to manufacturer's manual, resulting in the destination vector pLenti6-DEST-GFP-Ires-RFP to allow Gateway cloning. To enable gateway cloning and C-terminal GFP tagging of BTK, the BTK open reading frame (ORF) was first shuttled from a pcDNA-DEST40-BTK vector (Invitrogen library ID INV_20090504v1) into pDONR221 (Invitrogen 12536-017) vector using a gateway BP reaction according to the manufacturer's manual (Invitrogen 11789-013) resulting in the novel construct pENTR221-BTK. For C-terminal tagging the STOP codon was mutated to a leucine performing a mutagenesis reaction with the following primers (pENTR221-BTK Quikchange STOP-Leu fw, gtcatggatgaagaatccTTGaacccagctttcttgtac; pENTR221-BTK Quikchange STOP-Leu REVC, gtacaagaaagctgggttCAAggattcttcatccatgac) using the QuikChange Lightning mutagenesis kit (Agilent Technologies #210518) according to the manufacturer's manual, resulting in pENTR221-BTK (STOP-Leu). […]

The subject of the next experiment is OCI-LY3 cells. Description: Resazurin cell viability (proliferation) assay in OCI-LY3 DLBCL cells. The conditions noted are these: OCI-LY3 cells (BTK independent), 72 h, 50% growth inhibition vs vehicle, read-out: OCI-LY3 Prol GI50. The procedure:
as §1, §2, §3, §4, §5
OCI-LY3 cells were acquired through a license agreement with University Health Network, Toronto, Canada. Cells are cultivated in RPM11640 media (Gibco, #61870-010, lot. 1894759), supplemented with 10% FCS (HyClone, GE #SH30066.03, lot AB217603), 2 mM L-Glutamine (BioConcept, #5-10K50-H, lot. LA03467P), 1 mM Sodium Pyruvate (BioConcept, #5-60F00-H, lot. LB10510P), 10 mM HEPES (Gibco, #15630-056, lot. 1854074), 1% Pen/Strep (BioConcept, #4-01F00-H, lot. LB04235P).

Where two headings read alike, the source gives them in different places. A value given as a limit tells only on which side of the number the result lay.

T1 sequence (Q06187 whole entry): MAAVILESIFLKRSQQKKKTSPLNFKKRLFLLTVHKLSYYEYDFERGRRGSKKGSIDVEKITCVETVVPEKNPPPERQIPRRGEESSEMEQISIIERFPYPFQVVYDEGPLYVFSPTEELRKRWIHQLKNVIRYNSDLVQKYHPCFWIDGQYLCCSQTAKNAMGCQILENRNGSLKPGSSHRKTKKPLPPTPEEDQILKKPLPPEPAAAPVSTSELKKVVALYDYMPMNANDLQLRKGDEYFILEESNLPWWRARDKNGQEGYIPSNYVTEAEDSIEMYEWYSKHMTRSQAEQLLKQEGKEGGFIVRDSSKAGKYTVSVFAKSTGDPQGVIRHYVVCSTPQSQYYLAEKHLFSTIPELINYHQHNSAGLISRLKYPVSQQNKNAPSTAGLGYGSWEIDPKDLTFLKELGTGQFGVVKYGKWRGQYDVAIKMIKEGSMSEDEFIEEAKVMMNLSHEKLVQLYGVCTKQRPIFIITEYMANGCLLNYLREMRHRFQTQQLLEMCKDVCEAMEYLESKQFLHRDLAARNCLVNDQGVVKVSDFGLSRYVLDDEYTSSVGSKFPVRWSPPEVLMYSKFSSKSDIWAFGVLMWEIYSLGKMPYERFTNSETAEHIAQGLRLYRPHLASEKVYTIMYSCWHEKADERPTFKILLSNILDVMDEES
T1 sequence (Q96SW2 whole entry): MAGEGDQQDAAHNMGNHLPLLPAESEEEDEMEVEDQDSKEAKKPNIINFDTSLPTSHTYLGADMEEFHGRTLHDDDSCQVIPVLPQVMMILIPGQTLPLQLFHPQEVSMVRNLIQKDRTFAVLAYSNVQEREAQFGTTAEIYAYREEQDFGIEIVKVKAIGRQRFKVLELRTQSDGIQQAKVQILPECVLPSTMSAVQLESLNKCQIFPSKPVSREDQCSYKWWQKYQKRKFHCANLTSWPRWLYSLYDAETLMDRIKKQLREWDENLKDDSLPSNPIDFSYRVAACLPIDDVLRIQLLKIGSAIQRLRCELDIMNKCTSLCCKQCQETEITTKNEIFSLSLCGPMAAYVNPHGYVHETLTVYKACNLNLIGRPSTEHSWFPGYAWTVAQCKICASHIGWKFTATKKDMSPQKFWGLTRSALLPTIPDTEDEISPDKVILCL
T1 sequence (Q16531 whole entry partner): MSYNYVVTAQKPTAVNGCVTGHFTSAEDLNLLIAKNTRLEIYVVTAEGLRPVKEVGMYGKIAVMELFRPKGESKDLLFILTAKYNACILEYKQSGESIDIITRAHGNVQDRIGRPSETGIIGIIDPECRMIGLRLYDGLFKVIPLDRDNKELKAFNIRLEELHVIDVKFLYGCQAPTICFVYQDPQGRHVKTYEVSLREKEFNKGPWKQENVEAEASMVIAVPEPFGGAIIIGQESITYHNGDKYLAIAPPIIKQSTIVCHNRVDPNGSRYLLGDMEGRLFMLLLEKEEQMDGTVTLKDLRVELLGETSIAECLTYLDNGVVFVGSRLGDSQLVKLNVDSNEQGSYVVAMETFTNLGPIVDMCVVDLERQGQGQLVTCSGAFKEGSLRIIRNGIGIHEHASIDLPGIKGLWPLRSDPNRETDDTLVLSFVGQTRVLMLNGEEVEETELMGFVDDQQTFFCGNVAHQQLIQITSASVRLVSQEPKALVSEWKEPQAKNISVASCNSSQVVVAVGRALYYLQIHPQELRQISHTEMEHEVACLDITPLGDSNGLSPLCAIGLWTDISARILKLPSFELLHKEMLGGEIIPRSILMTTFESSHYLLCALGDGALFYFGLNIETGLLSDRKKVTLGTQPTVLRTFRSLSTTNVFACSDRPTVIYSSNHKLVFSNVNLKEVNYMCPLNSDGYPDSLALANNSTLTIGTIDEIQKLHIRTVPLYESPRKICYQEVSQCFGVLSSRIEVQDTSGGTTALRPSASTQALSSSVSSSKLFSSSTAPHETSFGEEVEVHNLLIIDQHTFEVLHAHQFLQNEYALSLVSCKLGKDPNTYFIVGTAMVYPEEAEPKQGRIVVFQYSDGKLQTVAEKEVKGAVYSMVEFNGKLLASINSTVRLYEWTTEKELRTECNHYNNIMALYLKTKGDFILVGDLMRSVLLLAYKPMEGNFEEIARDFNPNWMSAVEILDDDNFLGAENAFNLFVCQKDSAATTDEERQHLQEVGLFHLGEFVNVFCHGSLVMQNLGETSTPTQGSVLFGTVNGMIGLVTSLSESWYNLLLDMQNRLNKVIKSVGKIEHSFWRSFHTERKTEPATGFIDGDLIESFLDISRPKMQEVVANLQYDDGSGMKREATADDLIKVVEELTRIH

Usually GI50 stands for the concentration giving 50% growth inhibition. In general, DC50 refers to the concentration giving 50% degradation. Low values mean a more potent degrader, high ones a less potent degrader. As to `COc1ccc(C(=O)N2CCN(CCN3CCN(Cc4ccc(-c5cc6c(-c7cc(F)cc(NC(=O)c8ccc(C(C)(C)O)cc8F)c7C)ncnc6[nH]5)cc4)CC3)CC2)cc1N1CCC(=O)NC1=O` [Compound 16, N-(3-(6-(4-((4-(2-(4-(3-(2,4-Dioxotetrahydropyrimidin-1(2H)-yl)-4-methoxybenzoyl)piperazin-1-yl)ethyl)piperazin-1-yl)methyl)phenyl)-7H-pyrrolo[2,3-d]pyrimidin-4-yl)-5-fluoro-2-methylphenyl)-2-fluoro-4-(2-hydroxypropan-2-yl)benzamide], in the experiment with TMD8 cells (Homo sapiens), the GI50 came to 0.67 nM. Also, at BTK-GFP, it took 4.2 nM to reach half-maximal degradation (DC50) and the “BTK deg Amax” value is reported as 4.1%. For the same compound, the GI50 in the experiment on OCI-LY3 cells (Homo sapiens) was above 10000 nM.

With `COc1ccc(C(=O)NCCN2CCC3(CC2)CCN(Cc2ccc(-c4cc5c(-c6cc(F)cc(NC(=O)c7ccc(C(C)(C)O)cc7F)c6C)ncnc5[nH]4)cc2)C3)cc1N1CCC(=O)NC1=O` [Compound 35, N-(3-(6-(4-((8-(2-(3-(2,4-Dioxotetrahydropyrimidin-1(2H)-yl)-4-methoxybenzamido)ethyl)-2,8-diazaspiro[4.5]decan-2-yl)methyl)phenyl)-7H-pyrrolo[2,3-d]pyrimidin-4-yl)-5-fluoro-2-methylphenyl)-2-fluoro-4-(2-hydroxypropan-2-yl)benzamide], the values for the 50% growth inhibitory concentration (GI50) in the experiment on TMD8 cells (Homo sapiens) and in the experiment with OCI-LY3 cells (Homo sapiens) were 3.46 nM and 9160 nM, respectively. The compound further registered a DC50 on BTK-GFP of 61.1 nM. Besides, the “BTK deg Amax” value on BTK-GFP is 7.6%.

Turning to `COc1ccc(C(=O)N2CCC3(CCN(Cc4ccc(-c5cc6c(-c7cc(F)cc(NC(=O)c8ccc(C(C)(C)O)cc8F)c7C)ncnc6[nH]5)cc4)C[C@@H]3CO)CC2)cc1N1CCC(=O)NC1=O` (single isomer, unassigned) [Compound 24], in the experiment on TMD8 cells (Homo sapiens), the concentration for 50% growth inhibition (GI50) was determined as 5.98 nM. At BTK-GFP, the DC50 turned out to be 77.1 nM and the “BTK deg Amax” value is 10.8%. Further, the concentration for 50% growth inhibition (GI50) in the experiment on OCI-LY3 cells (Homo sapiens) was above 10000 nM.

Take `COc1ccc(C(=O)N2CCC(O[C@H]3CC[C@@H](OCc4ccc(-c5cc6c(-c7cc(F)cc(NC(=O)c8ccc(C(C)(C)O)cc8F)c7C)ncnc6[nH]5)cc4)CC3)CC2)cc1N1CCC(=O)NC1=O` [Compound 41, N-(3-(6-(4-((((1s,4s)-4-((1-(3-(2,4-dioxotetrahydropyrimidin-1(2H)-yl)-4-methoxybenzoyl)piperidin-4-yl)oxy)cyclohexyl)oxy)methyl)phenyl)-7H-pyrrolo[2,3-d]pyrimidin-4-yl)-5-fluoro-2-methylphenyl)-2-fluoro-4-(2-hydroxypropan-2-yl)benzamide]: in the experiment with TMD8 cells, the GI50 came to 17.5 nM. In addition, at BTK-GFP, the DC50 turned out to be 12.4 nM and the “BTK deg Amax” value amounted to 4.4%. The GI50 with OCI-LY3 cells is above 10000 nM.

On to `Cc1ccc(C(=O)N2CCC(OC3CCN(CCc4ccc(-c5cc6c(-c7cc(F)cc(NC(=O)c8ccc(C(C)(C)O)cc8F)c7C)ncnc6[nH]5)cc4)CC3)CC2)cc1N1CCC(=O)NC1=O` [Compound 10, N-(3-(6-(4-(2-(4-((1-(3-(2,4-Dioxotetrahydropyrimidin-1(2H)-yl)-4-methylbenzoyl)piperidin-4-yl)oxyl)piperidin-1-yl)ethyl)phenyl)-7H-pyrrolo[2,3-d]pyrimidin-4-yl)-5-fluoro-2-methylphenyl)-2-fluoro-4-(2-hydroxypropan-2-yl)benzamide], for which the GI50 in the experiment with TMD8 cells (Homo sapiens) came out at 0.36 nM. On BTK-GFP, it took 0.7 nM to reach half-maximal degradation (DC50) and the “BTK deg Amax” value is given as 2.3%. In addition, in the experiment on OCI-LY3 cells (Homo sapiens), the GI50 was 5940 nM.

In the case of `COc1ccc(C(=O)N2CCC(OCCN3CCC(Oc4ccc(-c5cc6c(-c7cc(F)cc(NC(=O)c8ccc(C(C)(C)O)cc8F)c7C)ncnc6[nH]5)cc4)CC3)CC2)cc1N1CCC(=O)NC1=O` [Compound 58, N-(3-(6-(4-((1-(2-((1-(3-(2,4-dioxotetrahydropyrimidin-1(2H)-yl)-4-methoxybenzoyl)piperidin-4-yl)oxy)ethyl)piperidin-4-yl)oxy)phenyl)-7H-pyrrolo[2,3-d]pyrimidin-4-yl)-5-fluoro-2-methylphenyl)-2-fluoro-4-(2-hydroxypropan-2-yl)benzamide], the GI50 in the experiment with TMD8 cells (Homo sapiens) amounted to 0.56 nM. Also, on BTK-GFP, the DC50 was 0.9 nM and the “BTK deg Amax” value amounted to 1.8%. Besides, the GI50 in the experiment with OCI-LY3 cells (Homo sapiens) was 4920 nM.
